Measurements: US6066628A, “Non-iron metalloporphyrins and methods of use” (Emory University, priority 1998, dated 2000)
Read-outs that look alike come from different tables or passages of the source.

Legend:
[1] = system: M. smegmatis; assay: Disc diffusion sensitivity test; assay type: cell-based, Mycobacterium smegmatis; details: disc ~50 μg MP
[2] = system: S. aureus; assay type: cell-based, Staphylococcus aureus; details: for Minimal inhibitory concentration (MIC): methicillin-resistant S. aureus IR219, Nutrient broth (Table 2)
[3] = system: N. meningitidis; assay: Disc diffusion sensitivity test; assay type: cell-based; details: disc ~50 μg MP
[4] = system: E. faecalis; assay: Disc diffusion sensitivity test; assay type: cell-based, Enterococcus faecalis; details: disc ~50 μg MP; note: key: -: resistant; N: not determined
[5] = system: Y. enterocolitica; assay: microbe, parasite or virus in culture; assay type: cell-based
[6] = system: M. smegmatis; assay type: cell-based, Mycobacterium smegmatis; details: for Minimal inhibitory concentration (MIC): M. smegmatis LR222, LB + Tween 80 (Table 2)
[7] = system: Y. enterocolitica; assay: Disc diffusion sensitivity test; assay type: cell-based; details: disc ~50 μg MP
[8] = system: B. subtilis; assay: Disc diffusion sensitivity test; assay type: cell-based, Bacillus subtilis; details: B. subtilis; disc ~50 μg MP
[9] = system: S. crevisieae; assay: Disc diffusion sensitivity test; assay type: cell-based, Saccharomyces cerevisiae; details: S. cerevisiae; disc ~50 μg MP
[10] = system: M. bovis; assay type: cell-based, Mycobacterium bovis; details: disc ~50 μg MP
[11] = system: S. marcescens; assay: Disc diffusion sensitivity test; assay type: cell-based, Serratia marcescens; details: S. marcescens; disc ~50 μg MP
[12] = system: S. pyogenes A; assay: Disc diffusion sensitivity test; assay type: cell-based, Streptococcus pyogenes; details: disc ~50 μg MP
[13] = system: S. aureus; assay: Disc diffusion sensitivity test; assay type: cell-based, Staphylococcus aureus; details: S. aureus; disc ~50 μg MP
[14] = system: Ps. aeruginosa; assay: Disc diffusion sensitivity test; assay type: cell-based, Pseudomonas aeruginosa; details: disc ~50 μg MP; note: key: -: resistant; N: not determined
[15] = system: bacteria; assay type: cell-based
[16] = system: yeasts; assay: Yeast growth inhibition; assay type: cell-based
[17] = system: S. aureus; assay: Minimal bactericidal concentration; assay type: cell-based, Staphylococcus aureus; details: reduces plating efficiency more than 99.9%; minimal exposure to light
Description: Minimal bactericidal concentrations (MBCs) were determined essentially the same way as MICs except that the amount of killing with a particular concentration of porphyrin derivative was determined by plating on solid microbiological media (LB plates or LB+Tween 80). Media were solidified by the incorporation of 1.5% agar (Difco Laboratories). Concentrations of porphyrins that produced 99.9% reduction in bacterial counts were considered bactericidal [Hindler et al. (1994) supra].
MBC were determined by plating bacterial cultures that have been incubate
in the presence of MPs at concentrations higher than MIC. MBC was defined
as a concentration of a particular MP which reduces the plating efficienc
more than 99.9%. Experiments were done with minimal exposure to light
(addition of porphyrins waa done in the presence of artifical light).

[18] = system: K. oxytoca; assay: Disc diffusion sensitivity test; assay type: cell-based, Klebsiella oxytoca; details: K. oxytoca; disc ~50 μg MP
[19] = system: C. freundii; assay: Disc diffusion sensitivity test; assay type: cell-based, Citrobacter freundii; details: C. freundii; disc ~50 μg MP
[20] = system: M tuber. H37Pa; assay: Disc diffusion sensitivity test; assay type: cell-based, Mycobacterium tuberculosis; details: disc ~50 μg MP
[21] = system: M. avium; details: M. avium
[22] = system: Streptococcus pyogenes JRS4; assay type: cell-based; details: S. pyogenes JRS4 (Table 4)
[23] = system: P. mirabills; assay: Disc diffusion sensitivity test; assay type: cell-based, Proteus mirabilis; details: P. mirabilis; disc ~50 μg MP
[24] = system: E. aerogenes; assay: Disc diffusion sensitivity test; assay type: cell-based, Enterobacter aerogenes; details: E. aerogenes; disc ~50 μg MP
[25] = system: Y. enterocolitica; assay: Minimal bactericidal concentration; assay type: cell-based; details: reduces plating efficiency more than 99.9%; minimal exposure to light
[26] = system: M. tuberculosis; assay type: cell-based, Mycobacterium tuberculosis; details: pathogenic M. tuberculosis
[27] = system: K. pneumoniae; assay: Disc diffusion sensitivity test; assay type: cell-based, Klebsiella pneumoniae; details: K. pneumoniae; disc ~50 μg MP
[28] = system: F. menigosepticum; assay: Disc diffusion sensitivity test; assay type: cell-based, Flavobacterium meningosepticum; details: F. meningosepticum; disc ~50 μg MP
[29] = system: M. smegmatis; assay: Minimal bactericidal concentration; assay type: cell-based, Mycobacterium smegmatis; details: reduces plating efficiency more than 99.9%; minimal exposure to light
[30] = system: M tuber. H37Rv; assay: Disc diffusion sensitivity test; assay type: cell-based, Mycobacterium tuberculosis; details: disc ~50 μg MP
[31] = system: E. coli; assay: Disc diffusion sensitivity test; assay type: cell-based, Escherichia coli; details: E. coli; disc ~50 μg MP

C=Cc1c2[n-]c(c1C)/C=c1\[n-]/c(c(C)c1C=C)=C\c1[n-]c(c(CCC(=O)O)c1C)C=c1[n-]/c(c(C)c1CCC(=O)O)=C\2.[Sn+4] [Sn-PPIX, tin-protoporphyrin IX]
diameter (mm) of the inhibition zone [1]: - | Minimal inhibitory concentration (MIC) [2]: > 40 µg/mL | diameter (mm) of the inhibition zone [3]: - | diameter (mm) of the inhibition zone [4]: - | Minimal inhibitory concentration (MIC) [5]: 20 | Minimal inhibitory concentration (MIC) [6]: 20 µg/mL | diameter (mm) of the inhibition zone [7]: - | diameter (mm) of the inhibition zone [8]: - | diameter (mm) of the inhibition zone [9]: - | diameter (mm) of the inhibition zone [10]: - | diameter (mm) of the inhibition zone [11]: - | diameter (mm) of the inhibition zone [12]: - | diameter (mm) of the inhibition zone [13]: - | diameter (mm) of the inhibition zone [14]: -

O=C(O)CCC1=C(CC(=O)O)C2=Cc3c(CC(=O)O)c(CCC(=O)O)c4[n]3[Ga]([Cl])[n]3c(c(CCC(=O)O)c(CC(=O)O)c3=CC3=NC(=C4)C(CC(=O)O)=C3CCC(=O)O)=CC1=N2 [Ga-UPIII, Ga-uroporphyrin III]
antibacterial activity [15]: seriously limited in their antibacterial activities | inhibition of growth of yeast [16]: able to inhibit growth of yeast

Indium (III) protoporphyrin IX chloride [In-PPIX]
Minimal bactericidal concentration (MBC) [17]: > 13 | diameter (mm) of the inhibition zone [18]: 9 mm | diameter (mm) of the inhibition zone [19]: 9 mm | diameter (mm) of the inhibition zone [20]: 17 mm | sensitivity (preliminary experiments) [21]: sensitive | Minimal inhibitory concentration (MIC) [2]: 1.6 µg/mL | MIC [22]: 0.1 µg/mL | diameter (mm) of the inhibition zone [4]: - | Minimal inhibitory concentration (MIC) [5]: 0.2 | antibacterial activity [5]: inhibitory | antibacterial activity ([6]; M. smegmatis): inhibitory | Minimal inhibitory concentration (MIC) [6]: 0.4 µg/mL | diameter (mm) of the inhibition zone [7]: 12 mm | diameter (mm) of the inhibition zone [23]: 9 mm | diameter (mm) of the inhibition zone [24]: 9 mm | Minimal bactericidal concentration (MBC) [25]: > 13 | sensitivity (preliminary experiments) [26]: sensitive | diameter (mm) of the inhibition zone [27]: 9 mm | diameter (mm) of the inhibition zone [12]: 13 mm | diameter (mm) of the inhibition zone [28]: - | diameter (mm) of the inhibition zone [13]: 15 mm | Minimal bactericidal concentration (MBC) [29]: 10 | diameter (mm) of the inhibition zone [14]: - | diameter (mm) of the inhibition zone [30]: - | diameter (mm) of the inhibition zone [31]: -

CC1=C(CCC(=O)O)C2=Cc3c(C)c(CCC(=O)O)c4[n]3[Ga]([Cl])[n]3c(c(C)c(CCC(=O)O)c3=CC1=N2)=CC1=NC(=C4)C(C)=C1CCC(=O)O [Ga-COPI, Ga-coproporphyrin I]
antibacterial activity [15]: seriously limited in their antibacterial activities | inhibition of growth of yeast [16]: able to inhibit growth of yeast

O=S(=O)([O-])c1ccc(-c2c3nc(c(-c4ccc(S(=O)(=O)[O-])cc4)c4ccc([n-]4)c(-c4ccc(S(=O)(=O)[O-])cc4)c4nc(c(-c5ccc(S(=O)(=O)[O-])cc5)c5ccc2[n-]5)C=C4)C=C3)cc1.[Cl-].[Mn+3] [Mn-meso, Mnmeso-tetra(4-sulfonatophenyl)-porphine chloride]
diameter (mm) of the inhibition zone [18]: - | diameter (mm) of the inhibition zone [19]: - | diameter (mm) of the inhibition zone [20]: - | diameter (mm) of the inhibition zone [3]: - | diameter (mm) of the inhibition zone [7]: - | diameter (mm) of the inhibition zone [23]: - | antibacterial activity ([15]; listed as Manganese (+2)-meso-tetra-4-sulfonatophenyl porphine): inactive | diameter (mm) of the inhibition zone [24]: - | diameter (mm) of the inhibition zone [8]: - | diameter (mm) of the inhibition zone [27]: - | diameter (mm) of the inhibition zone [11]: - | diameter (mm) of the inhibition zone [28]: - | diameter (mm) of the inhibition zone [13]: - | diameter (mm) of the inhibition zone [14]: - | diameter (mm) of the inhibition zone [30]: - | diameter (mm) of the inhibition zone [31]: -

C=Cc1c(C)c2cc3[nH]c(cc4nc(cc5nc(cc1[nH]2)C(C)=C5CCC(=O)[O-])C(CCC(=O)[O-])=C4C)c(C)c3C=C.[Co+2] [Co-PPIX]
diameter (mm) of the inhibition zone [1]: - | Minimal inhibitory concentration (MIC) [2]: 40 µg/mL | diameter (mm) of the inhibition zone [3]: - | diameter (mm) of the inhibition zone [4]: - | Minimal inhibitory concentration (MIC) [5]: 20 | Minimal inhibitory concentration (MIC) [6]: 20 µg/mL | diameter (mm) of the inhibition zone [7]: - | diameter (mm) of the inhibition zone [8]: - | diameter (mm) of the inhibition zone [9]: 18 mm | diameter (mm) of the inhibition zone [10]: - | diameter (mm) of the inhibition zone [11]: - | diameter (mm) of the inhibition zone [12]: - | diameter (mm) of the inhibition zone [13]: 15 mm | diameter (mm) of the inhibition zone [14]: -

C=CC1=C(C)c2cc3[n-]c(cc4nc(cc5[n-]c(cc1n2)c(C)c5CCC(=O)O)C(CCC(=O)O)=C4C)c(C)c3C=C.[Cr+2] [Cr-PPIX]
diameter (mm) of the inhibition zone [1]: - | Minimal inhibitory concentration (MIC) [2]: > 40 µg/mL | diameter (mm) of the inhibition zone [3]: - | diameter (mm) of the inhibition zone [4]: - | Minimal inhibitory concentration (MIC) [5]: 20 | Minimal inhibitory concentration (MIC) [6]: 20 µg/mL | diameter (mm) of the inhibition zone [7]: - | diameter (mm) of the inhibition zone [8]: - | diameter (mm) of the inhibition zone [9]: - | diameter (mm) of the inhibition zone [10]: - | diameter (mm) of the inhibition zone [11]: - | diameter (mm) of the inhibition zone [12]: - | diameter (mm) of the inhibition zone [13]: 10 mm | diameter (mm) of the inhibition zone [14]: -

C=CC1=C(C)c2cc3[n-]c(cc4nc(cc5[n-]c(cc1n2)c(C)c5CCC(=O)O)C(CCC(=O)O)=C4C)c(C)c3C=C.[Ru+2] [Ru-PPIX]
Minimal bactericidal concentration (MBC) [17]: 10 | diameter (mm) of the inhibition zone [1]: - | antibacterial activity ([2]; S. aureus): some activity | Minimal inhibitory concentration (MIC) [2]: 5 µg/mL | diameter (mm) of the inhibition zone [3]: 11 mm | diameter (mm) of the inhibition zone [4]: - | Minimal inhibitory concentration (MIC) [5]: > 40 | Minimal inhibitory concentration (MIC) [6]: 20 µg/mL | diameter (mm) of the inhibition zone [7]: - | Minimal bactericidal concentration (MBC) [25]: > 40 | diameter (mm) of the inhibition zone [8]: - | diameter (mm) of the inhibition zone [9]: - | diameter (mm) of the inhibition zone [10]: - | diameter (mm) of the inhibition zone [11]: - | diameter (mm) of the inhibition zone [28]: - | diameter (mm) of the inhibition zone [13]: 12 mm | Minimal bactericidal concentration (MBC) [29]: > 20 | diameter (mm) of the inhibition zone [14]: -
